# Measured values reported in PMC5995184, “Potent anti-leukemic activity of a specific cyclin-dependent kinase 9 inhibitor in mouse models of chronic lymphocytic leukemia” (Oncotarget, 2018).
# Assays:
# [1] = target: T1, CDK2-Cyclin A (Homo sapiens, UniProt P24941); test: FRET-based LANCE Ultra in vitro enzymatic kinase assay, CDK2; format: biochemical
# T1 construct: purchased ProQinase
# Experimental: IC50 values for CDK inhibitors were determined using the fluorescence resonance energy transfer (FRET)-based LANCE Ultra KinaSelect Ser/Thr kit (Perkin Elmer). Kinase activity and inhibition were measured according to the manufacturer’s instructions and as previously described. […] FRET signals were recorded in a time-resolved manner in a Perkin Elmer EnVision reader. Purified cyclin-kinase pairs were obtained from the following suppliers: Carna Biosciences (CDK1-Cyclin B1, CDK6-Cyclin D3, CDK7-Cyclin H-MAT1), ProQinase (CDK2-Cyclin A) and Invitrogen (CDK9-Cyclin T1).
# Data were analyzed with GraphPad Prism 7 software. Differences were assessed by unpaired or paired Student t tests if not indicated otherwise. Two-sided probabilities of less than 0.05 were considered significant. Nonlinear regression sigmoidal dose-response curve fit was used to determine the IC50 values and to generate graphs.
# [2] = system: human CLL cells and human T cells in NSG spleens; test: Human CLL xenograft in NSG mice, oral LDC526; format: in vivo, mouse; settings: for mean weight loss: 75 mg/kg group
# Source text: We and others previously established human CLL xenograft models using NOD/SCID and NSG mice, respectively. We chose to use the NSG model for LDC526 experiments since NSG CLL and concomitant T cell engraftment levels are expected to be higher than in the NOD/SCID model. We intravenously injected PBMCs from n=6 CLL patients into n=57 NSG mice and commenced LDC treatment with a 14 day latency according to the experimental set-up outlined in Figure 3A. To study the effect of doses and treatment duration we chose to administer 50 and 75 mg/kg for three days (NSG transplanted with cells originating from n=3 patients) and for five days (NSG transplanted with cells originating from n=3 additional patients). On experimental days 17 and 21 NSG spleens were harvested and the content of human CLL and T cells was determined by cell counting and flow cytometry (Figure 3B). […] Compared to carrier control treatment, numbers of human CLL cells decreased after 3 and 5 days of LDC526 treatment, respectively. However, statistical significance regarding the reduction of human CLL cell numbers was only achieved at the LDC526 75 mg/kg dose level (Figure 3C). […] In order to determine whether there was differential in vivo LDC526 sensitivity of T cell subsets we performed additional staining for human CD4+ and CD8+ T cells present in the spleens of xenografted NSG mice (Figure 4A). […] In contrast, in mice transplanted with cells of n=2 other CLL patients and receiving LDC526 treatment for 5 days we observed a rising CD4/CD8 ratio with increasing LDC526 doses (Figure 4B). This could mean that CD8+ cytotoxic T cells are more susceptible to longer LDC526 exposure (5 versus 3 days) than CD4+ T cells. However, this differential skew within the T cell compartment could also reflect the heterogeneity of T cells derived from different CLL patients. […] A mean weight loss of 1.8% was detectable in mice of the LDC526 75 mg/kg group (day 16). […] Remarkably, human T cell numbers were already decreased at a lower dose level than human CLL cells.
# All mice were bred and housed at the University Hospital Essen animal care facility. TCL1 mice were back-crossed more than 6 generations into the C57BL/6 background and were genotyped as previously described. Age-matched TCL1 wild-type littermates served as controls. Peripheral blood counts were determined with the VetABC analyzer (scil, Viernheim, Germany). Blood smears were Wright-Giemsa stained. For the human CLL xenograft experiments eight to 14-week-old NOD.Cg-Prkdc^scid Il2rg^tm1Wjl/SzJ (NOD/scid/γc^null; NSG) mice were sublethally irradiated (3.25 Gy) 24 hours before transplantation. Freshly isolated 1.0 x 10^8 PBMC suspended in 0.2 ml of RPMI were intravenously transplanted as previously described. For oral administration, LDC526 was diluted in polyethelene glycol (PEG Mn 400, Sigma-Aldrich) and administerd by gavage. Animal experiments were performed in accordance with institutional guidelines approved by the Animal Care Committee of the University Hospital Essen.
# LDC526 [(3-((4-(4-fluoro-2-methoxyphenyl)-1,3,5-triazin-2-yl)amino)phenyl)methane-sulfonamide, molecular weight 389,41 g/mol, Figure 1A] was provided as powder (LDC526 synthesis, supplementary methods). For oral gavage administration LDC526 was diluted in polyethelene glycol (PEG Mn 400, Sigma-Aldrich, Munich, Germany) followed by sonication for 3 x 5 minutes with intermediate mixing.
# Apoptosis and cell death were determined by using Annexin V (BD Biosciences, Heidelberg, Germany) and 4′,6-Diamidin-2-phenylindol (DAPI, Sigma-Aldrich) staining. Erythrocytes of murine peripheral blood samples were lysed with NH4Cl hypotonic solution. Single cell suspensions of murine spleens were prepared as previously described. Murine cells were stained with antibodies directed against murine CD3 (clone 145-2C11), CD5 (53-7.3) and CD19 (1D3), respectively. […]
# [3] = 75 mg/kg, day 21, representative plot
smiles,measurement,setting,value
"COc1cc(F)ccc1-c1ncnc(Nc2cccc(CS(N)(=O)=O)c2)n1 [LDC526, (3-((4-(4-fluoro-2-methoxyphenyl)-1,3,5-triazin-2-yl)amino)phenyl)methane-sulfonamide]",selectivity versus CDK9 compared to CDK2,[1],52 fold
same,reduction of human CLL cells in NSG spleens compared to carrier control,[2]; 75 mg/kg for 5 days,77%
same,mean weight loss,[2]; day 16,1.8%
same,mean weight loss,[2]; day 21,3.6%
same,"flow cytometry gate huCD4, NSG spleen T cells",[2]; [3],81.2
same,"flow cytometry gate huCD8, NSG spleen T cells",[2]; [3],14.7
same,"flow cytometry gate huCD45+ huCD3, NSG spleen",[2]; [3],38.7
same,numbers of splenic human T cells,"[2]; 50 and 75 mg/kg, 3 or 5 days",significantly reduced at both LDC526 doses
